Several values for one entry are separate records, joined by “and”; a condition that tells them apart may be missing. Equal values may be shown once.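 Briefly, cells in 96-well plates were exposed to five compound concentrations for 48 h, and endpoints were estimated by linear interpolation. Abbreviation: GI50, concentration required for 50% inhibition of growth. TGI is the concentration that stops growth completely.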
Tests used:
Test in all cases: inhibition of tumour cell growth, NCI panel, 48 h
[1] = system: U251 CNS
[2] = system: HCC-2998 colon
[3] = system: A549 NSCLC
[4] = system: OVCAR-3 ovarian
[5] = system: UACC-257 melanoma
[6] = system: SN12C renal
[7] = system: SNB-75 CNS
[8] = system: NCI-H23 lung
[9] = system: CAKI-1 renal
[10] = system: OVCAR-4 ovarian
[11] = system: UACC-62 melanoma
[12] = system: 786-0 renal
[13] = system: NCI-H226 lung
[14] = system: SK-OV-3 ovarian
[15] = system: PC-3 prostate
[16] = system: MDA-MB-231 breast
[17] = system: MCF7 breast
[18] = system: MALME-3M melanoma

SMILES | TGI [1] [µM] | TGI [2] [µM] | TGI [3] [µM] | TGI [4] [µM] | TGI [5] [µM] | TGI [6] | TGI [7] [µM] | TGI [8] [µM] | TGI [9] [µM] | TGI [10] [µM] | TGI [11] [µM] | TGI [12] [µM] | TGI [13] | TGI [14] [µM] | TGI [15] [µM] | TGI [16] [µM] | TGI [17] [µM] | TGI [18] [µM] | GI50 [13] [µM]
c1ccc2c(C3NCCc4[nH]cnc43)cccc2c1 (stereo not given) | > 100 | > 100 | > 100 | > 100 | > 100 | > 100 µM | > 100 | > 100 | > 100 | > 100 | > 100 | > 100 | > 100 µM | > 100 |  |  |  |  | 
CC1(C)CC(=O)c2c(nc3ccc4ccccc4c3c2-c2ccc(NC(=O)CCCC(=O)Nc3ccc(-c4c5c(nc6ccc7ccccc7c46)CC(C)(C)CC5=O)cc3)cc2)C1 | > 100 |  | > 100 | > 100 | > 100 | > 100 µM | > 100 | > 100 | > 100 |  | > 100 | > 100 | > 100 µM | > 100 | > 100 | > 100 | > 100 |  | 
COc1cc2cc(C(=O)N3CC(CCl)c4ccc(O)cc43)[nH]c2c(OC)c1OC (stereo not given) |  | 0.00936 | 1.25 | 0.015 |  | 0.148 µM and 0.104 µM | 0.0652 | 0.812 | 0.0201 |  | 0.00683 | 0.121 | 0.0566 µM and 0.471 µM |  |  | 0.0134 |  | 0.0178 | 0.116
CC(=O)C1=CSC2[C@H](NC(=O)Cc3ccccc3)C(=O)N2C1C(=O)OC(c1ccccc1)c1ccccc1 (stereo not given in full) |  | > 100 | > 100 | > 100 | > 100 | > 100 µM | > 100 | > 100 | > 100 | > 100 | > 100 | > 100 | > 100 µM | > 100 |  |  |  | > 100 | 
COc1ccc2[nH]c3c(c2c1)CCn1c-3nc2ccccc2c1=O | > 25 | > 25 | > 25 |  | > 25 | > 25 µM | > 25 |  |  | > 25 |  | > 25 |  | > 25 | > 25 | > 25 | > 25 |  | 
COc1cccc(/C=C2/Sc3scc(-c4ccccc4)[n+]3C2=O)c1O | 43.3 | 30.7 | > 100 | 95.3 | 44.9 | 36.8 µM | > 100 | 38.9 | 47.7 | 74.4 | 30.5 | 32.1 | 40.5 µM | 70.4 | > 100 | 79.2 | > 100 |  | 
CC1(C)CS(=O)(=O)CC(C)(C)C(=N/N)/C1=N\N | > 100 | > 100 | > 100 | > 100 | > 100 | > 100 µM | > 100 | > 100 | > 100 | > 100 | > 100 | > 100 |  | > 100 | > 100 |  | > 100 | > 100 | 
CCOC(=O)C1=C(O)C(=O)c2ccsc2C1=O | > 100 | > 100 | > 100 | > 100 | > 100 | > 100 µM | > 100 | > 100 | > 100 | > 100 | > 100 | > 100 | > 100 µM | > 100 |  |  |  | > 100 | 
C=CCc1cc(OC)c2c(c1)C(O)CC(c1ccccc1)O2 (stereo not given) | > 100 | > 100 | > 100 | > 100 | > 100 | > 100 µM | > 100 | > 100 | > 100 | > 100 | > 100 | > 100 | > 100 µM | > 100 |  |  |  | > 100 | 
CCCN(C(=O)c1c(Cl)nnc(Cl)c1C(=O)c1cc(Cl)nnc1Cl)c1cc(Cl)nnc1Cl | 33.3 | 32.3 | > 100 | 26.6 | 42.1 | 26.1 µM | 32.5 | 20.3 | 22.3 | 38.1 | 24.9 | 21 | 57.3 µM | > 100 | 22.2 | 34.3 | 16.8 |  | 
CN(C)c1ccc(N=Nc2ccc3nc[nH]c3c2)cc1 | 76.4 |  | > 100 |  | 59.5 | 71 µM | 68.9 | > 100 | > 100 | 68.5 | 48.7 | 36.1 | 82.1 µM |  | > 100 | 39.4 |  | 53 | 
CCOC(=O)CSc1nc(-c2ccccc2)c(C#N)c(=O)[nH]1 | > 100 | > 100 | > 100 | > 100 | > 100 | > 100 µM | > 100 | > 100 | > 100 | > 100 | > 100 | > 100 | > 100 µM | > 100 | > 100 | > 100 | > 100 |  | 
O=c1oc2ccccc2c2c(=O)c3ccc(OC/C(=N/O)c4ccc(Cl)cc4)cc3oc12 | 23.3 |  | 32 | 10.9 | > 100 | 51.2 µM |  | 45.1 | 24 |  | 24.4 | 24.2 | 36.2 µM | 24.3 | 24.5 | 43.2 | 49.6 |  | 
COc1ccc(NS(=O)CCCc2ccccc2)cc1 (stereo not given) | > 100 |  | > 100 | > 100 | > 100 | > 100 µM |  | > 100 |  | > 100 | > 100 | > 100 | > 100 µM |  |  | > 100 | > 100 | > 100 | 
Cn1c(/C=C(\O)c2ccc(Cl)cc2)nc2ccccc21 | > 100 | > 100 | 69.4 | > 100 | 67.1 | > 100 µM | > 100 | > 100 | 97 | > 100 | > 100 | > 100 | > 100 µM |  |  |  |  | > 100 | 

Reference: PubChem BioAssay (NCI)
